# Measured values reported in ChEMBL document CHEMBL1129456, “Synthesis and evaluation of two positron-labeled nitric oxide synthase inhibitors, S-[11C]methylisothiourea and S-(2-[18F]fluoroethyl)isothiourea, as potential positron emission tomography tracers” (J Med Chem, 1996).
# Columns and labels:
# [1] = Partition coefficient measured by octanol/water extraction at pH 6.8; assay type: physicochemical
# Rattus norvegicus [2] = organism: Rattus norvegicus; experiment: Biodistribution in bone of mature female Dawley rat after 1h, expressed as percent injected dose/g; assay type: ADME, organism-based, Bone element; conditions: in vivo
# Rattus norvegicus [3] = organism: Rattus norvegicus; experiment: Biodistribution in heart of mature female Dawley rat after 3 h, expressed as percent injected dose/g; assay type: ADME, organism-based; conditions: in vivo
# Rattus norvegicus [4] = organism: Rattus norvegicus; experiment: Biodistribution in abdominal of mature female Dawley rat after 1h, expressed as percent injected dose/g; assay type: ADME, organism-based, Abdominal cavity; conditions: in vivo
# Rattus norvegicus [5] = organism: Rattus norvegicus; experiment: Biodistribution in muscle of mature female Dawley rat after 30min, expressed as percent injected dose/g; assay type: ADME, organism-based, Muscle tissue; conditions: in vivo, 0.5 h
# Rattus norvegicus [6] = organism: Rattus norvegicus; experiment: Biodistribution in abdominal Dawley rat after 30min, expressed as percent injected dose/g; assay type: ADME, organism-based; conditions: in vivo, 0.5 h
# Rattus norvegicus [7] = organism: Rattus norvegicus; experiment: Biodistribution in bone of mature female Dawley rat after 30min, expressed as percent injected dose/g; assay type: ADME, organism-based, Bone element; conditions: in vivo, 0.5 h
# Rattus norvegicus [8] = organism: Rattus norvegicus; experiment: Biodistribution in lung of mature female Dawley rat after 1h, expressed as percent injected dose/g; assay type: ADME, organism-based; conditions: in vivo
# Rattus norvegicus [9] = organism: Rattus norvegicus; experiment: Biodistribution inl liver of mature female Dawley rat after 1h, expressed as percent injected dose/g; assay type: ADME, organism-based; conditions: in vivo
# Rattus norvegicus [10] = organism: Rattus norvegicus; experiment: Biodistribution in brain of mature female Dawley rat after 1h, expressed as percent injected dose/g; assay type: ADME, organism-based; conditions: in vivo
# Rattus norvegicus [11] = organism: Rattus norvegicus; experiment: Biodistribution inl ilver of mature female Dawley rat after 30min, expressed as percent injected dose/g; assay type: ADME, organism-based; conditions: in vivo, 0.5 h
# Rattus norvegicus [12] = organism: Rattus norvegicus; experiment: Biodistribution in bone of mature female Dawley rat after 3 h, expressed as percent injected dose/g; assay type: ADME, organism-based, Bone element; conditions: in vivo
# Rattus norvegicus [13] = organism: Rattus norvegicus; experiment: Biodistribution in brain of mature female Dawley rat after 10min, expressed as percent injected dose/g; assay type: ADME, organism-based; conditions: in vivo
# Rattus norvegicus [14] = organism: Rattus norvegicus; experiment: Biodistribution in lung of mature female Dawley rat after 3 h, expressed as percent injected dose/g; assay type: ADME, organism-based; conditions: in vivo
# Rattus norvegicus [15] = organism: Rattus norvegicus; experiment: Biodistribution in brain of mature female Dawley rat after 30min, expressed as percent injected dose/g; assay type: ADME, organism-based; conditions: in vivo, 0.5 h
# Rattus norvegicus [16] = organism: Rattus norvegicus; experiment: Biodistribution in abdominal of mature female Dawley rat after 3 h, expressed as percent injected dose/g; assay type: ADME, organism-based, Abdominal cavity; conditions: in vivo
# Rattus norvegicus [17] = organism: Rattus norvegicus; experiment: Biodistribution in lung of mature female Dawley rat after 30min, expressed as percent injected dose/g; assay type: ADME, organism-based; conditions: in vivo, 0.5 h
# Rattus norvegicus [18] = organism: Rattus norvegicus; experiment: Biodistribution in heart of mature female Dawley rat after 10min, expressed as percent injected dose/g; assay type: ADME, organism-based; conditions: in vivo
# Rattus norvegicus [19] = organism: Rattus norvegicus; experiment: Biodistribution in heart of mature female Dawley rat after 1h, expressed as percent injected dose/g; assay type: ADME, organism-based; conditions: in vivo
# Rattus norvegicus [20] = organism: Rattus norvegicus; experiment: Biodistribution in kidney of mature female Dawley rat after 1h, expressed as percent injected dose/g; assay type: ADME, organism-based; conditions: in vivo
# Rattus norvegicus [21] = organism: Rattus norvegicus; experiment: Biodistribution in blood of mature female Dawley rat after 3 h, expressed as percent injected dose/g; assay type: ADME, organism-based; conditions: in vivo
# Rattus norvegicus [22] = organism: Rattus norvegicus; experiment: Biodistribution in heart of mature female Dawley rat after 30min, expressed as percent injected dose/g; assay type: ADME, organism-based; conditions: in vivo, 0.5 h
# Rattus norvegicus [23] = organism: Rattus norvegicus; experiment: Biodistribution in muscle of mature female Dawley rat after 3 h, expressed as percent injected dose/g; assay type: ADME, organism-based, Muscle tissue; conditions: in vivo
# Rattus norvegicus [24] = organism: Rattus norvegicus; experiment: Biodistribution in blood of mature female Dawley rat after 1h, expressed as percent injected dose/g; assay type: ADME, organism-based; conditions: in vivo
# Rattus norvegicus [25] = organism: Rattus norvegicus; experiment: Biodistribution in fat of mature female Dawley rat after 10min, expressed as percent injected dose/g; assay type: ADME, organism-based, Adipose tissue; conditions: in vivo
# Rattus norvegicus [26] = organism: Rattus norvegicus; experiment: Biodistribution in blood of mature female Dawley rat after 30min, expressed as percent injected dose/g; assay type: ADME, organism-based; conditions: in vivo, 0.5 h
# Rattus norvegicus [27] = organism: Rattus norvegicus; experiment: Biodistribution in lung of mature female Dawley rat after 10min, expressed as percent injected dose/g; assay type: ADME, organism-based; conditions: in vivo
# Rattus norvegicus [28] = organism: Rattus norvegicus; experiment: Biodistribution inl iver of mature female Dawley rat after 3 h, expressed as percent injected dose/g; assay type: ADME, organism-based, Liver; conditions: in vivo
# Rattus norvegicus [29] = organism: Rattus norvegicus; experiment: Biodistribution in brain of mature female Dawley rat after 3 h, expressed as percent injected dose/g; assay type: ADME, organism-based; conditions: in vivo
# Rattus norvegicus [30] = organism: Rattus norvegicus; experiment: Biodistribution in bone of mature female Dawley rat after 10min, expressed as percent injected dose/g; assay type: ADME, organism-based, Bone element; conditions: in vivo
# Rattus norvegicus [31] = organism: Rattus norvegicus; experiment: Biodistribution in kidney of mature female Dawley rat after 3 h, expressed as percent injected dose/g; assay type: ADME, organism-based; conditions: in vivo
# Rattus norvegicus [32] = organism: Rattus norvegicus; experiment: Biodistribution in blood of mature female Dawley rat after 10min, expressed as percent injected dose/g; assay type: ADME, organism-based; conditions: in vivo
# Rattus norvegicus [33] = organism: Rattus norvegicus; experiment: Biodistribution in muscle of mature female Dawley rat after 10min, expressed as percent injected dose/g; assay type: ADME, organism-based, Muscle tissue; conditions: in vivo
# Rattus norvegicus [34] = organism: Rattus norvegicus; experiment: Biodistribution in fat of mature female Dawley rat after 3 h, expressed as percent injected dose/g; assay type: ADME, organism-based, Adipose tissue; conditions: in vivo
# Rattus norvegicus [35] = organism: Rattus norvegicus; experiment: Biodistribution in fat of mature female Dawley rat after 30min, expressed as percent injected dose/g; assay type: ADME, organism-based, Adipose tissue; conditions: in vivo, 0.5 h
# Rattus norvegicus [36] = organism: Rattus norvegicus; experiment: Biodistribution in fat of mature female Dawley rat after 1h, expressed as percent injected dose/g; assay type: ADME, organism-based, Adipose tissue; conditions: in vivo
# Rattus norvegicus [37] = organism: Rattus norvegicus; experiment: Biodistribution in kidney of mature female Dawley rat after 10min, expressed as percent injected dose/g; assay type: ADME, organism-based; conditions: in vivo
# Rattus norvegicus [38] = organism: Rattus norvegicus; experiment: Biodistribution in kidney of mature female Dawley rat after 30min, expressed as percent injected dose/g; assay type: ADME, organism-based; conditions: in vivo, 0.5 h
# Rattus norvegicus [39] = organism: Rattus norvegicus; experiment: Biodistribution in muscle of mature female Dawley rat after 1h, expressed as percent injected dose/g; assay type: ADME, organism-based, Muscle tissue; conditions: in vivo
# Rattus norvegicus [40] = organism: Rattus norvegicus; experiment: Biodistribution in liver of mature female Dawley rat after 10min, expressed as percent injected dose/g; assay type: ADME, organism-based; conditions: in vivo
# Rattus norvegicus [41] = organism: Rattus norvegicus; experiment: Biodistribution in abdominal of mature female Dawley rat after 10min, expressed as percent injected dose/g; assay type: ADME, organism-based, Abdominal cavity; conditions: in vivo
structure (smiles),measurement,setting,value
[11CH3]SC(=N)N,logD,[1],-0.04
N=C(N)SCC[18F],Biodistribution,Rattus norvegicus [2],0.88%
same,Biodistribution,Rattus norvegicus [3],0.16%
same,Biodistribution,Rattus norvegicus [4],0.26%
same,Biodistribution,Rattus norvegicus [5],0.38%
same,Biodistribution,Rattus norvegicus [6],0.31%
same,Biodistribution,Rattus norvegicus [7],0.82%
same,Biodistribution,Rattus norvegicus [8],0.38%
same,Biodistribution,Rattus norvegicus [9],0.35%
same,Biodistribution,Rattus norvegicus [10],0.17%
same,Biodistribution,Rattus norvegicus [11],0.51%
same,Biodistribution,Rattus norvegicus [12],1.19%
same,Biodistribution,Rattus norvegicus [13],0.14%
same,Biodistribution,Rattus norvegicus [14],0.17%
same,Biodistribution,Rattus norvegicus [15],0.15%
same,Biodistribution,Rattus norvegicus [16],0.16%
same,Biodistribution,Rattus norvegicus [17],0.57%
same,Biodistribution,Rattus norvegicus [18],0.62%
same,Biodistribution,Rattus norvegicus [19],0.29%
same,Biodistribution,Rattus norvegicus [20],0.64%
same,Biodistribution,Rattus norvegicus [21],0.19%
same,Biodistribution,Rattus norvegicus [22],0.37%
same,Biodistribution,Rattus norvegicus [23],0.14%
same,Biodistribution,Rattus norvegicus [24],0.32%
same,Biodistribution,Rattus norvegicus [25],0.08%
same,Biodistribution,Rattus norvegicus [26],0.27%
same,Biodistribution,Rattus norvegicus [27],1.02%
same,Biodistribution,Rattus norvegicus [28],0.16%
same,Biodistribution,Rattus norvegicus [29],0.16%
same,Biodistribution,Rattus norvegicus [30],0.55%
same,Biodistribution,Rattus norvegicus [31],0.21%
same,Biodistribution,Rattus norvegicus [32],0.32%
same,Biodistribution,Rattus norvegicus [33],0.33%
same,Biodistribution,Rattus norvegicus [34],0.04%
same,Biodistribution,Rattus norvegicus [35],0.07%
same,Biodistribution,Rattus norvegicus [36],0.07%
same,Biodistribution,Rattus norvegicus [37],1.82%
same,Biodistribution,Rattus norvegicus [38],1.06%
same,Biodistribution,Rattus norvegicus [39],0.32%
same,Biodistribution,Rattus norvegicus [40],0.95%
same,Biodistribution,Rattus norvegicus [41],0.38%
